Test results reported in patent US20240158446A1, “CYCLIC COMPOUND HAVING SELECTIVE INHIBITORY ACTION ON KRAS OVER HRAS AND NRAS” (CHUGAI SEIYAKU KABUSHIKI KAISHA, priority 2021, published 2024).
Read-outs that look alike come from different tables or passages of the source.

Key:
[1] = tested on: human lung cancer strain NCI-H441;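 note: cell proliferation inhibition after four days measured by CellTiter-Glo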
[2] = target: GDP-bound KRAS wild-type protein (Homo sapiens, UniProt P01116); assay: Binding to KRAS by surface plasmon resonance (SPR), Single Cycle Kinetics; settings: GDP-bound KRAS wild-type protein, read-out: KRAS KD
GDP-bound KRAS wild-type protein, sequence (P01116 whole entry): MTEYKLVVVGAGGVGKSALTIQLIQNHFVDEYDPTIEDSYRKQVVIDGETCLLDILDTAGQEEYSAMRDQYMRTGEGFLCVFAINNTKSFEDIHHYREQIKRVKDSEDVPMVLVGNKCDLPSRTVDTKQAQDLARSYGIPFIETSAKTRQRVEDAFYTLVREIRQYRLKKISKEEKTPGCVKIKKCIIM

[3] = target: GDP-bound NRAS wild-type protein (Homo sapiens, UniProt P01111); assay: Binding to NRAS by surface plasmon resonance (SPR), Single Cycle Kinetics; settings: for NRAS/KRAS (ratio of KD value for NRAS to KD value for KRAS): SPR, GDP-bound NRAS wild-type protein vs GDP-bound KRAS wild-type protein; for NRAS/KRAS (ratio of KD value with respect to GDP-bound NRAS wild-type protein to KD value with respect to KRAS): SPR KD ratio NRAS/KRAS, class symbols
GDP-bound NRAS wild-type protein, sequence (P01111 whole entry): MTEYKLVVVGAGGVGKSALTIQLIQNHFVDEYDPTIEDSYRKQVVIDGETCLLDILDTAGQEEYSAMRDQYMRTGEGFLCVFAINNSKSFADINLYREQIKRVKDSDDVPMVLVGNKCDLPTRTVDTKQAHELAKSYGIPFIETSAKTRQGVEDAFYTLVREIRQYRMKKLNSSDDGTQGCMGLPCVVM

[4] = target: GDP-bound HRAS wild-type protein (Homo sapiens, UniProt P01112); assay: Binding to HRAS by surface plasmon resonance (SPR), Single Cycle Kinetics; settings: for HRAS/KRAS (ratio of KD value for HRAS to KD value for KRAS): SPR, GDP-bound HRAS wild-type protein vs GDP-bound KRAS wild-type protein; for HRAS/KRAS (ratio of KD value with respect to GDP-bound HRAS wild-type protein to KD value with respect to KRAS): SPR KD ratio HRAS/KRAS, class symbols
GDP-bound HRAS wild-type protein, sequence (P01112 whole entry): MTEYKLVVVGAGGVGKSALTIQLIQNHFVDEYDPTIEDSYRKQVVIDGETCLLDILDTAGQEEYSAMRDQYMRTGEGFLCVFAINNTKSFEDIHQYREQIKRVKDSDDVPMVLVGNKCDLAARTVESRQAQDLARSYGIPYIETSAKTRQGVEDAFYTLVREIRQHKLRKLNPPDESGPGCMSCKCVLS

[5] = SPR, Single Cycle Kinetics, 1:1 binding model
[6] = SPR Single Cycle Kinetics, 1:1 binding model

| IC50 [1] | Kd [2, 5] | Kd ([2]; SPR, Single Cycle Kinetics) | Kd [2, 6] | Compound | NRAS/KRAS (ratio of KD value for NRAS to KD value for KRAS) ([3]; KD ratio class) | HRAS/KRAS (ratio of KD value for HRAS to KD value for KRAS) ([4]; KD ratio class) | NRAS/KRAS (ratio of KD value for NRAS to KD value for KRAS) [3] | HRAS/KRAS (ratio of KD value for HRAS to KD value for KRAS) [4] | NRAS/KRAS (ratio of KD value with respect to GDP-bound NRAS wild-type protein to KD value with respect to KRAS) [3] | HRAS/KRAS (ratio of KD value with respect to GDP-bound HRAS wild-type protein to KD value with respect to KRAS) [4] |
| --- | --- | --- | --- | --- | --- | --- | --- | --- | --- | --- |
| 10.2 nM | 0.14 nM |  |  | CCO[C@@H]1C[C@H]2C(=O)NC3(CCC3)C(=O)N(C)[C@@H](C3CCCC3)C(=O)N(C)[C@H](C(=O)N3CCOCC3)CC(=O)N(C)[C@@H](CC)C(=O)N[C@@H]([C@@H](C)CC)C(=O)N(C)CC(=O)N(C)[C@H]3C/C=C\CCN(C3=O)[C@@H](Cc3ccc(C(F)(F)F)cc3)C(=O)N(C)CC(=O)N[C@@H](CCc3ccc(C(F)(F)F)c(Cl)c3)C(=O)N2C1 [PP1281, (2S,8S,12R,14S,20S,23S,27S,30S,36S,38Z)-8-[2-[3-chloro-4-(trifluoromethyl)phenyl]ethyl]-20-cyclopentyl-12-ethoxy-27-ethyl-4,19,22,26,32,35-hexamethyl-30-[(1S)-1-methylpropyl]-23-(morpholine-4-carbonyl)-2-[[4-(trifluoromethyl)phenyl]methyl]spiro[1,4,7,10,16,19,22,26,29,32,35-undecazatricyclo[34.5.1.0^10,14]dotetracont-38-ene-17,1′-cyclobutane]-3,6,9,15,18,21,25,28,31,34,42-undecone] | AA (a compound having 20 or more is denoted as AA) | A (a compound having 10 or more and less than 20 is denoted as A) |  |  |  |  |
| 128 nM | 1.6 nM |  |  | CCO[C@@H]1C[C@H]2C(=O)NC3(CCC3)C(=O)N(C)[C@@H](C(CC)CC)C(=O)N(C)[C@H](C(=O)N(C)C)CC(=O)N(C)[C@@H](CC3CC3)C(=O)N[C@@H]([C@@H](C)CC)C(=O)N(C)CC(=O)N(C)[C@H]3C/C=C\CCN(C3=O)[C@@H](Cc3ccc(C(F)(F)F)cc3)C(=O)N(C)CC(=O)N[C@@H](CCc3ccc4sccc4c3)C(=O)N2C1 [PP1227] | A (a compound having 10 or more and less than 20 is denoted as A) | A (a compound having 10 or more and less than 20 is denoted as A) |  |  |  |  |
| 74 nM |  | 0.32 nM |  | CCO[C@@H]1C[C@H]2C(=O)NC3(CCC3)C(=O)N(C)[C@@H](C3CCCC3)C(=O)N(C)[C@H](C(=O)N(C)C)CC(=O)N(C)[C@@H](Cc3cccs3)C(=O)N[C@@H]([C@@H](C)CC)C(=O)N(C)CC(=O)N(C)[C@H]3CCCCCN(C3=O)[C@@H](Cc3ccc(C(F)(F)F)cc3)C(=O)N(C)CC(=O)N[C@@H](CCc3cc(F)c(C(F)(F)F)c(F)c3)C(=O)N2C1 [PP1169] |  |  | B (a compound having 3 or more and less than 10 is denoted as B) | B (a compound having 3 or more and less than 10 is denoted as B) |  |  |
| 60.4 nM | 0.37 nM |  |  | CCO[C@@H]1C[C@H]2C(=O)NC3(CCC3)C(=O)N(C)[C@@H](C3CCCC3)C(=O)N(C)[C@H](C(=O)N(C)C)CC(=O)N(C)[C@@H](CC3CC3)C(=O)N[C@@H]([C@@H](C)CC)C(=O)N(C)CC(=O)N(C)[C@H]3C/C=C\CCN(C3=O)[C@@H](Cc3ccc(C(F)(F)F)cc3)C(=O)N(C)CC(=O)N[C@@H](CCc3ccc4sccc4c3)C(=O)N2C1 [PP1260] | A (a compound having 10 or more and less than 20 is denoted as A) | A (a compound having 10 or more and less than 20 is denoted as A) |  |  |  |  |
| 20.6 nM |  |  | 0.19 nM | CCO[C@@H]1C[C@H]2C(=O)NC3(CC(C)(C)C3)C(=O)N(C)[C@@H](C3CCCCC3)C(=O)N(C)[C@H](C(=O)N(C)C)CC(=O)N(C)[C@@H](COC)C(=O)N[C@@H]([C@@H](C)CC)C(=O)N(C)CC(=O)N(C)[C@H]3C/C=C\CCN(C3=O)[C@@H](Cc3ccc(C)cc3)C(=O)N(C)CC(=O)N[C@@H](CCc3cc(F)c(C(F)(F)F)c(F)c3)C(=O)N2C1 [PP2659] |  |  |  |  | A (a compound having 10 or more and less than 20 is denoted as A) | A (a compound having 10 or more and less than 20 is denoted as A) |

The next lines start with the compound.

| Compound | IC50 [1] | Kd [2, 5] | Kd ([2]; SPR, Single Cycle Kinetics) | Kd [2, 6] | NRAS/KRAS (ratio of KD value for NRAS to KD value for KRAS) ([3]; KD ratio class) | HRAS/KRAS (ratio of KD value for HRAS to KD value for KRAS) ([4]; KD ratio class) | NRAS/KRAS (ratio of KD value for NRAS to KD value for KRAS) [3] | HRAS/KRAS (ratio of KD value for HRAS to KD value for KRAS) [4] | NRAS/KRAS (ratio of KD value with respect to GDP-bound NRAS wild-type protein to KD value with respect to KRAS) [3] | HRAS/KRAS (ratio of KD value with respect to GDP-bound HRAS wild-type protein to KD value with respect to KRAS) [4] |
| --- | --- | --- | --- | --- | --- | --- | --- | --- | --- | --- |
| CCC[C@H]1C(=O)N[C@@H]([C@@H](C)CC)C(=O)N(C2CC2)CC(=O)N(C)[C@H]2C/C=C\CCN(C2=O)[C@@H](CC2CCC(F)(F)CC2)C(=O)N(C)CC(=O)N[C@@H](CCc2ccc(C(F)(F)F)c(OC)c2)C(=O)N2C[C@@H](C)C[C@H]2C(=O)N(C)C2(CCC2)C(=O)N(C)[C@@H](C2CCCC2)C(=O)N(C)[C@H](C(=O)N(C)C)CC(=O)N1C [PP2378] | 48.3 nM |  | 0.88 nM |  |  |  | B (a compound having 3 or more and less than 10 is denoted as B) | A (a compound having 10 or more and less than 20 is denoted as A) |  |  |
| CCC[C@H]1C(=O)N[C@@H](CC(C)C)C(=O)N(CC)CC(=O)N(C)[C@H]2C/C=C\CCN(C2=O)[C@@H](Cc2ccc(C)cc2)C(=O)N(C)CC(=O)N[C@@H](CCc2cc(F)c(C(F)(F)F)c(F)c2)C(=O)N2C[C@H](OCC)C[C@H]2C(=O)NC2(CC(C)(C)C2)C(=O)N(C)[C@@H](C2CCCC2)C(=O)N(C)[C@H](C(=O)N(C)C)CC(=O)N1C [PP2516] | 124 nM |  | 2.9 nM |  |  |  | A (a compound having 10 or more and less than 20 is denoted as A) | B (a compound having 3 or more and less than 10 is denoted as B) |  |  |
| CCC[C@H]1C(=O)N[C@@H]([C@@H](C)CC)C(=O)N2CCC[C@H]2C(=O)N(C)[C@H]2C/C=C\CCN(C2=O)[C@@H](Cc2ccc(C)cc2)C(=O)N(C)CC(=O)N[C@@H](CCc2ccc(Cl)c(Cl)c2)C(=O)N2C[C@H](OCC)C[C@H]2C(=O)NC2(CC(C)(C)C2)C(=O)N(C)[C@@H](C(CC)CC)C(=O)N(C)[C@H](C(=O)N(C)C)CC(=O)N1C [PP2638] | 97 nM |  |  | 2.5 nM |  |  |  |  | AA (a compound having 20 or more is denoted as AA) | A (a compound having 10 or more and less than 20 is denoted as A) |
| CCC[C@H]1C(=O)N[C@@H]([C@@H](C)CC)C(=O)N(C2CC2)CC(=O)N(C)[C@H]2C/C=C\CCN(C2=O)[C@@H](Cc2ccc(C(F)(F)F)cc2)C(=O)N(C)CC(=O)N[C@@H](CCc2ccc(Cl)c(Cl)c2)C(=O)N2C[C@H](OCC)C[C@H]2C(=O)NC2(CC(C)(C)C2)C(=O)N(C)[C@@H](CC(C)(C)C)C(=O)N(C)[C@H](C(=O)N(C)C)CC(=O)N1C [PP2749] | 22.1 nM |  |  | 0.87 nM |  |  |  |  | AA (a compound having 20 or more is denoted as AA) | A (a compound having 10 or more and less than 20 is denoted as A) |
| CCOC[C@H]1C(=O)N[C@@H]([C@@H](C)CC)C(=O)N2CCC[C@H]2C(=O)N(C)[C@H]2C/C=C\CCN(C2=O)[C@@H](CC2CCC(F)(F)CC2)C(=O)N(C)CC(=O)N[C@@H](CCc2ccc(C(F)(F)F)c(OC)c2)C(=O)N2C[C@H](OCC)C[C@H]2C(=O)N(C)C2(CCC2)C(=O)N(C)[C@@H](C(CC)CC)C(=O)N(C)[C@H](C(=O)N(C)C)CC(=O)N1C [PP2355] | 103 nM |  | 3.9 nM |  |  |  | AA (a compound having 20 or more is denoted as AA) | A (a compound having 10 or more and less than 20 is denoted as A) |  |  |
